Data: patent US20150283270A1, “MODELING ANTI-LEUKEMIC THERAPY BY PATIENT DERIVED AML XENOGRAFTS WITH DISTINCT PHENOTYPES/GENOTYPES” (Crown Bioscience Inc., priority 2014, published 2015)
“Also recorded” adds a separate entry of the source.

Tested on: AM7577 leukemic cells (hCD45+)
Test: Evaluation of anti-leukemia activity of a therapeutic in AM7577-mice (AML patient derived xenograft)
Format: in vivo, NOD/SCID mice
Settings: for Inhibition of leukemia in blood: FIG. 4 legend; for Leukemic load in peripheral blood (hCD45+): 5-day-on/2-day-off, starting 15 days post-engraftment
Description: Animal experiments were conducted at Crown Bioscience's laboratory, China. The transplantation recipient NOD/SCID mice were purchased from Beijing HFK Bioscience at between 3-4 weeks of age. The Institutional Animal Care and Use Committee (IACUC) of Crown Bioscience approved animal study protocols. All procedures were under sterile conditions at Crown Bioscience's SPF facility and conducted in strict accordance with the Guide for the Care and Use of Laboratory Animals of the National Institutes of Health. Ficoll® column isolated MNCs were injected into the tail-vein of 4-week old, sub lethally irradiated NOD/SCID mice ([…]), followed by weekly monitoring for peripheral appearance of leukemic cells (CD45^+) via retro-orbital bleeding and flow analysis. Briefly, ˜50 μL blood was collected into anticoagulative tubes (BD 365974, Becton Dickinson and Co., Franklin Lakes, N.J.). After lysis of red blood cells the cells were stained with 20 μL mouse anti-human CD45 antibody (Biolegend, CA) and incubated on ice for 30 minutes in the dark followed by washing with cold PBS. The cells were resuspended in150 μL PBS and subjected to FACS analysis.
Fifteen days post-engraftment, mice were administered different doses of cytarabine (AraC). Mouse blood was collected by retro-orbital bleed and human CD45^+ cells were quantified weekly by flow cytometry. Body weight and clinical signs were also monitored twice weekly. When mice became morbid due to full-blown leukemia, the animals were sacrificed, followed by gross and microscopic examinations. Major relevant organs (bone marrow, spleen, blood, liver, lymph nodes, etc.) were examined and harvested for further analysis, including IHC (method described previously, Yang, M. et al., Int J Cancer. 2012; Sep. 5. doi: 10.1002/ijc.27813) and immunological phenotyping of the leukemia cells by FACS.
Cytarabine (AraC) is the current standard chemotherapy agent for induction therapy of AML, including AML-M5. We tested AraC anti-leukemic activity against AM7577, by subjecting AM7577-mice to a 5-day-on/2-day-off Ara-C dosing regimen, starting 15 days post-engraftment.
We subsequently explored whether AraC treatment actually cured the disease by withdrawing treatment. The result was rapid relapse just a few days post-treatment withdrawal (FIG. 3A). This observation can potentially be interpreted as AraC has only affected leukemic blasts, but has no affect on LICs.

CC(C)(C)c1cc(NC(=O)Nc2ccc(-c3cn4c(n3)sc3cc(OCCN5CCOCC5)ccc34)cc2)no1 [AC220]
Inhibition of leukemia in blood: Inhibition

Nc1ccn([C@@H]2O[C@H](CO)[C@@H](O)[C@@H]2O)c(=O)n1 [AraC, Cytarabine]
Leukemic load in peripheral blood (hCD45+) (3 mg/kg): no detectable leukemic load
Leukemic load in peripheral blood (hCD45+) (10 mg/kg): no detectable leukemic load
Relapse after drug withdrawal (AM7577-mice, after treatment withdrawal): rapidly relapsed; also recorded: rapid relapse
Treatment & response (AML mouse model AM7577): complete remission
Leukemic blasts in peripheral blood on resuming treatment after withdrawal (second dosing period after relapse): effectively re-suppressed
Survival of AM7577-mice (under treatment vs vehicle group): extended life; also recorded: extended AM7577-mice survival times

CNC(=O)c1cc(Oc2ccc(NC(=O)Nc3ccc(Cl)c(C(F)(F)F)c3)cc2)ccn1 [sorafenib]
Inhibition of leukemia in blood: Inhibition
